Drawing on ChEMBL document CHEMBL5291721, “A preclinical secondary pharmacology resource illuminates target-adverse drug reaction associations of marketed drugs” (Nat Commun, 2023), this text covers AC50 for four compounds.

Bounds are passed on as bounds.

The target in assay [1] is T1, 5-hydroxytryptamine receptor 1A (Homo sapiens, UniProt P08908).
T1 sequence (P08908 whole entry): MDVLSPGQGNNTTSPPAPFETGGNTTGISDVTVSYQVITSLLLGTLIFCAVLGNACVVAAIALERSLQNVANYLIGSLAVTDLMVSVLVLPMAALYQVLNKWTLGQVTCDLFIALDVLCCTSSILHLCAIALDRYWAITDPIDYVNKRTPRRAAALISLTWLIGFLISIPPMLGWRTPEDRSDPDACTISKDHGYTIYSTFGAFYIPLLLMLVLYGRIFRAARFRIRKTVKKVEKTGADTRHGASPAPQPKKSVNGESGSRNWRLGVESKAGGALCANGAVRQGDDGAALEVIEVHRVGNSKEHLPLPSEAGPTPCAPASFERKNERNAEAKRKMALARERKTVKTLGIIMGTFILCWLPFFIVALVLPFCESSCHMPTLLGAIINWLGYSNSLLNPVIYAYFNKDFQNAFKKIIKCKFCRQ

Assay [2] has as its target Sodium-dependent dopamine transporter (Homo sapiens, UniProt Q01959).
Assay [3] has as its target 5-hydroxytryptamine receptor 2B (Homo sapiens, UniProt P41595). The assay is classed as functional, cell-based.
Assay [4] deals with Prostaglandin G/H synthase 1 (Homo sapiens, UniProt P23219). The assay is classed as functional.
Another assay addresses T2, Progesterone receptor (Homo sapiens, UniProt P06401).
T2 sequence (P06401 whole entry): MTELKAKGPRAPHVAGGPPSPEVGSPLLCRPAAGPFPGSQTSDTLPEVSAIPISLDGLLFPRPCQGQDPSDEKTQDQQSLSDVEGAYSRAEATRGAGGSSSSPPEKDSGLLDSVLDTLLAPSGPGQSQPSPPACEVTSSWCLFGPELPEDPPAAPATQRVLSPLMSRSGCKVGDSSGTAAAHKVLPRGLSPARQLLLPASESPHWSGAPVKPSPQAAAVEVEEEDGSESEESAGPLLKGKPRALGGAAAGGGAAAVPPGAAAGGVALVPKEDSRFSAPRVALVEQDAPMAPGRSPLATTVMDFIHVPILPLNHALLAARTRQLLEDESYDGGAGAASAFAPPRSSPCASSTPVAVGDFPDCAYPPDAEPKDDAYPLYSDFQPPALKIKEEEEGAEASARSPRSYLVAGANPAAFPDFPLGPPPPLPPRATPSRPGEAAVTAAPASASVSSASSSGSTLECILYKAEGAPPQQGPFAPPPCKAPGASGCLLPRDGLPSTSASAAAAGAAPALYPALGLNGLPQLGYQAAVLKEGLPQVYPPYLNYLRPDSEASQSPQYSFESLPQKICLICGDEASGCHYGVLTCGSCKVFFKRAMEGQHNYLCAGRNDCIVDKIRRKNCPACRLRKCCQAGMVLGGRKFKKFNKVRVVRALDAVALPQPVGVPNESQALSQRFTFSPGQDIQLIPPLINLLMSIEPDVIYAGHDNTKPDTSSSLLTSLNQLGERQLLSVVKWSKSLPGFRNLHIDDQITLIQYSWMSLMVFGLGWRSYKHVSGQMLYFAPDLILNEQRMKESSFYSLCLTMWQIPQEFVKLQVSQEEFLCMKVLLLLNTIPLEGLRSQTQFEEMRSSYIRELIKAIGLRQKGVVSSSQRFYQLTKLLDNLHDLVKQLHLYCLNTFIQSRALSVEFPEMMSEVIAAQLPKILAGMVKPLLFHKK

The target in another assay is Prothrombin (Homo sapiens, UniProt P00734). In kind it is functional.
The target in assay [5] is T3, Muscarinic acetylcholine receptor M2 (Homo sapiens, UniProt P08172).
T3 sequence (P08172 whole entry): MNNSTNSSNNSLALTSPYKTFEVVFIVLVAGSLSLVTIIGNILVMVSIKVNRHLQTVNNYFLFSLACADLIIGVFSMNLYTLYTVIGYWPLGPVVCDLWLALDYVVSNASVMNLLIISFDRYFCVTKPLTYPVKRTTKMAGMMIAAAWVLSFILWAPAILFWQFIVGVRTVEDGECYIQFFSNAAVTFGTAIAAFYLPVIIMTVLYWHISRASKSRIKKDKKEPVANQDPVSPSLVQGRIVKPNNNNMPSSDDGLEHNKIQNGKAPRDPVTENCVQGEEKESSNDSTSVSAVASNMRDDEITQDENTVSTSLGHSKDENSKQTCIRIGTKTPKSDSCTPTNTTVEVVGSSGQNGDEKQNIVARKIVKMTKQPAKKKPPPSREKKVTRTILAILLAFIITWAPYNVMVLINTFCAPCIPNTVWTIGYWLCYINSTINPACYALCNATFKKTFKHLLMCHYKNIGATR

Assay [6] addresses T4, Thromboxane A2 receptor (Homo sapiens, UniProt P21731).
T4 sequence (P21731 whole entry): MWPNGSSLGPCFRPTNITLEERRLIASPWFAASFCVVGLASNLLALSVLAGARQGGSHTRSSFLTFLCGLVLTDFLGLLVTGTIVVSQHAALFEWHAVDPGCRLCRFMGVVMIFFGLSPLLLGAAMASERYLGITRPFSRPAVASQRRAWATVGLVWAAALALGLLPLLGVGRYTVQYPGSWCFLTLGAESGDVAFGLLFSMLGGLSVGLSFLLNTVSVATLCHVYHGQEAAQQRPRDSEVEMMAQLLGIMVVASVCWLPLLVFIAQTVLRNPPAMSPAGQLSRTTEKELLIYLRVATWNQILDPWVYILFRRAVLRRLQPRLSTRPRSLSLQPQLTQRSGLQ
The assay is classed as functional, cell-based.

Assay [7] has as its target T4, Thromboxane A2 receptor. In kind it is functional, cell-based. The source holds these as a separate data set.
Assay [8] has as its target T5, Peroxisome proliferator-activated receptor alpha (Homo sapiens, UniProt Q07869).
T5 sequence (Q07869 whole entry): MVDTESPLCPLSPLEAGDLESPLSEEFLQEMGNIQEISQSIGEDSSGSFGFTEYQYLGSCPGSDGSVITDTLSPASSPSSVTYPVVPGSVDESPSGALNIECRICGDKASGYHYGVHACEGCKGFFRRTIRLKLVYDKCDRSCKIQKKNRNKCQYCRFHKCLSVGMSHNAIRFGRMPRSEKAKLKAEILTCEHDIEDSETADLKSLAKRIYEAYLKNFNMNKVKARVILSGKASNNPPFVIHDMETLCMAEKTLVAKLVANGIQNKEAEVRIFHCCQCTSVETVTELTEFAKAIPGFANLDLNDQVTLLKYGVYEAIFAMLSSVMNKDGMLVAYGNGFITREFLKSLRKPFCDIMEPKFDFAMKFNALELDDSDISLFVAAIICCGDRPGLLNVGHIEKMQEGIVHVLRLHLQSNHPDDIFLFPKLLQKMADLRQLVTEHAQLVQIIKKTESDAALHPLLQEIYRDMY
The assay is classed as functional.
Note: assay procedure not described here.

Sequence of Prostaglandin G/H synthase 1 (P23219 whole entry): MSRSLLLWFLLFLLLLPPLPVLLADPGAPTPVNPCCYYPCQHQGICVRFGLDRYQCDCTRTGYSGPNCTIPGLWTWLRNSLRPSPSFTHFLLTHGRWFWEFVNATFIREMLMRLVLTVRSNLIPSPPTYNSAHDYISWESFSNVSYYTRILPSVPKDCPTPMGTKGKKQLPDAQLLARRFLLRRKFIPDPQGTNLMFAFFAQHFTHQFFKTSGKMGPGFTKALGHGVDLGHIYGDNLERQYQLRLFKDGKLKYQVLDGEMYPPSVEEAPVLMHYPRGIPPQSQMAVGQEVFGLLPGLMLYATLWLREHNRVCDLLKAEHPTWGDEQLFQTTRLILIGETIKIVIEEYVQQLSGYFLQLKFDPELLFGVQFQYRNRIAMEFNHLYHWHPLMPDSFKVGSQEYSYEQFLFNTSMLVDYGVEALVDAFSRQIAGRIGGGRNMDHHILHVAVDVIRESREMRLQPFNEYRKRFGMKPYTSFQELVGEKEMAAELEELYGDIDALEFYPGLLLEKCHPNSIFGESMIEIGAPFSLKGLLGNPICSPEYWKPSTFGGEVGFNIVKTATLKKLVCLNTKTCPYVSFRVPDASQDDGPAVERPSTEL
Sequence of Sodium-dependent dopamine transporter (Q01959 whole entry): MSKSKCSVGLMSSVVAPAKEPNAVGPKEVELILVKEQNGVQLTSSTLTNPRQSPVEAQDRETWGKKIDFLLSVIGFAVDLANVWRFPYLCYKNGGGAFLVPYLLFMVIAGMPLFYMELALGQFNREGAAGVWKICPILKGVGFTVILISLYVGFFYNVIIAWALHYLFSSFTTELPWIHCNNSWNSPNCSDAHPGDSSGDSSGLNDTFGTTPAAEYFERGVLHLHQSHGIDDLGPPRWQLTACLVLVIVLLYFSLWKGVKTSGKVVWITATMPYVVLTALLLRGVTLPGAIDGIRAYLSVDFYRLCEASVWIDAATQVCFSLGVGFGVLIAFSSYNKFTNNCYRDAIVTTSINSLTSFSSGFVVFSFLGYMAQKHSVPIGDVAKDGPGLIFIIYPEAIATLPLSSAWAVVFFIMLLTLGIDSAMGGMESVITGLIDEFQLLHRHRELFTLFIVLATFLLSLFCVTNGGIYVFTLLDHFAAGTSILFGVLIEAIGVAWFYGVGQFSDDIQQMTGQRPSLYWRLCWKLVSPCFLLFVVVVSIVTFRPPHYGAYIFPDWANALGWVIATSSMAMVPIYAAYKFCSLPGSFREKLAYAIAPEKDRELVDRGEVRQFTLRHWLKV
Sequence of 5-hydroxytryptamine receptor 2B (P41595 whole entry): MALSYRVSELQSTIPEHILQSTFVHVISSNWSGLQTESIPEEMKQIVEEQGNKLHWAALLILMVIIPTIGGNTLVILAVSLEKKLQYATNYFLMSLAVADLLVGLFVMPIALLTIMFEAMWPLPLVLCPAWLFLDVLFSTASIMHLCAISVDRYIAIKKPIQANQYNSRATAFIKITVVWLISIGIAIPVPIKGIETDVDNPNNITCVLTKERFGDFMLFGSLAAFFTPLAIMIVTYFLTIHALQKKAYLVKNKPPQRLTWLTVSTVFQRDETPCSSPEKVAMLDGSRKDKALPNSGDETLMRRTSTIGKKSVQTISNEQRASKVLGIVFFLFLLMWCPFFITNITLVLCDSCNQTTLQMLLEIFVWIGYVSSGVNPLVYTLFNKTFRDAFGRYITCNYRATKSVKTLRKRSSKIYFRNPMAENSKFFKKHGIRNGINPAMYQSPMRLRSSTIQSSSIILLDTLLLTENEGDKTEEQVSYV

For orientation: AC50 means the midpoint of the concentration-response curve, whichever way the signal moves. High values mean activity only at high concentration, low ones activity at low concentration. As for BIVALIRUDIN, the AC50 is above 30 µM in [1]; above 30 µM in [2]; above 30 µM in assay [3]; above 30 µM in assay [4]; above 30 µM on Progesterone receptor; 0.0092 µM at Prothrombin. Moreover, the AC50 (in assay [5]; at Thromboxane A2 receptor [6]; at Thromboxane A2 receptor [7]) was above 30 µM each time.

In the case of `Nc1nc2ccc(OC(F)(F)F)cc2s1` [RILUZOLE], the AC50 in assay [1] is above 30 µM; in [2] it was 18.7 µM; in assay [3], above 30 µM; in assay [4] it was above 30 µM; on Progesterone receptor it was above 30 µM; at Prothrombin it was above 30 µM. In addition, the AC50 (in assay [5]; on Thromboxane A2 receptor [6]; on Thromboxane A2 receptor [7]) was above 30 µM in each case.

In [8], `CC(C)c1c(C(=O)Nc2ccccc2)c(-c2ccccc2)c(-c2ccc(F)cc2)n1CC[C@@H](O)C[C@@H](O)CC(=O)O` [ATORVASTATIN] gave an AC50 above 30 µM.

As to `CC(C)(Oc1ccc(C2CC2(Cl)Cl)cc1)C(=O)O` (stereo not given) [CIPROFIBRATE], the AC50 in assay [8] was above 30 µM.
